Measured values as given in patent US20100298141A1, “SUBSTITUTED PYRIDINE N-OXIDE HERBICIDES” (E. I. DU PONT DE NEMOURS AND COMPANY, priority 2007, published 2010).

Experiments:
[1] = test system: quackgrass; assay: Test F preemergence test; format: in vivo, Elytrigia repens; conditions: scale 0 to 100
Description: (§1) Seeds of plant species selected from bermudagrass (Cynodon dactylon), Surinam grass (Brachiaria decumbens), large crabgrass (Digitaria sanguinalis), green foxtail (Setaria viridis), goosegrass (Eleusine indica), johnsongrass (Sorghum halepense), kochia (Kochia scoparia), pitted morningglory (Ipomoea lacunosa), purple nutsedge (Cyperus rotundus), common ragweed (Ambrosia elation), mustard (Brassica nigra), guineagrass (Panicum maximum), […] (Paspalum dilatatum), barnyardgrass (Echinochloa crus-galli), southern sandbur (Cenchrus echinatus), common sowthistle (Sonchus oleraceous), prickly […] spinosa), Italian ryegrass (Lolium multiflorum), common purslane (Portulaca oleracea), broadleaf signalgrass (Brachiaria platyphylla), common groundsel (Senecio vulgaris), common chickweed (Stellaria media), Virginia dayflower (Commelina virginica), annual bluegrass (Poa annua), naked crabgrass (Digitaria nuda), […] cochinchinensis), quackgrass (Elytrigia repens), Canada horseweed (Conyza canadensis), field bindweed (Convolvulus arvensis), […] (Bidens bipinnata), common mallow (Malva sylvestris), Russian thistle (Salsola kali), and sugarcane (Saccharum officinarum) were planted and treated preemergence with test chemicals formulated in a non-phytotoxic solvent mixture which included a surfactant. At a different time, sugarcane was treated with postemergence applications of some of the test chemicals formulated in the same manner. Plants were approximately 3- to 4-leaf stage for the postemergence treatments. Treated plants and controls were maintained in a greenhouse for 14 to 21 days, after which time all species were compared to controls and visually evaluated. […] A dash (-) response means no test result.

[2] = test system: goosegrass; assay: Test F preemergence test; format: in vivo, Eleusine indica; conditions: scale 0 to 100
Description: as §1

[3] = test system: woolly cupgrass; assay: Test C pre-/postemergence test; format: in vivo, Eriochloa villosa; conditions: Preemergence
How it was run: (§2)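 Test chemicals were formulated with surfactant in a non-phytotoxic solvent and sprayed both on freshly planted seeds (preemergence) and on 1- to 4-leaf plants of 2–18 cm (postemergence). Flooded-paddy pots received compound directly into 3 cm of standing water, maintained for the test.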

[4] = test system: kochia; assay: Test F preemergence test; format: in vivo, Kochia scoparia; conditions: scale 0 to 100
Description: as §1

[5] = test system: Italian ryegrass; assay: Test F preemergence test; format: in vivo, Lolium multiflorum; conditions: scale 0 to 100
Description: as §1

[6] = test system: blackgrass; assay: Test C pre-/postemergence test; format: in vivo, Alopecurus myosuroides
How it was run: as §2

[7] = test system: Surinam grass; assay: Test F preemergence test; format: in vivo, Brachiaria decumbens; conditions: scale 0 to 100
Description: as §1

[8] = test system: common ragweed; assay: Test F preemergence test; format: in vivo, Ambrosia elation; conditions: scale 0 to 100
Description: as §1

[9] = test system: purple nutsedge; assay: Test F preemergence test; format: in vivo, Cyperus rotundus; conditions: scale 0 to 100
Description: as §1

[10] = test system: southern sandbur; assay: Test F preemergence test; format: in vivo, Cenchrus echinatus; conditions: scale 0 to 100
Description: as §1

[11] = test system: barnyardgrass; assay: Test F preemergence test; format: in vivo, Echinochloa crus-galli; conditions: scale 0 to 100
Description: as §1

[12] = test system: corn; assay: Test C pre-/postemergence test; format: in vivo, Zea mays
How it was run: as §2

[13] = test system: large crabgrass; assay: Test F preemergence test; format: in vivo, Digitaria sanguinalis; conditions: scale 0 to 100
Description: as §1

[14] = test system: bermudagrass; assay: Test F preemergence test; format: in vivo, Cynodon dactylon; conditions: scale 0 to 100
Description: as §1

[15] = test system: mustard; assay: Test F preemergence test; format: in vivo, Brassica nigra; conditions: scale 0 to 100
Description: as §1

[16] = test system: broadleaf signalgrass; assay: Test F preemergence test; format: in vivo, Brachiaria platyphylla; conditions: scale 0 to 100
Description: as §1

[17] = 62 g ai/ha, Preemergence, scale 0 to 100
[18] = Preemergence, 31 g ai/ha, scale 0 to 100 (0 no effect, 100 complete control)
[19] = preemergence, 125 g ai/ha, scale 0 (no effect) to 100 (complete control)

**Q.** For Cn1nc(C(F)(F)F)c(C[S+]([O-])c2cccc[n+]2[O-])c1OCC(F)(F)F (racemic) [Compound 28], which “Quackgrass plant response rating” value ([1]; 62 g ai/ha, Preemergence) is on record?
**A.** Its value is 90.

**Q.** And the “Quackgrass plant response rating” value ([1]; 125 g ai/ha, preemergence)?
**A.** Its value is 95.

**Q.** And the “Plant response rating, Quackgrass” value ([1]; Preemergence, 16 g ai/ha)?
**A.** The value was 0.

**Q.** What about the “Plant response rating, Quackgrass” value ([1]; Preemergence, 31 g ai/ha) of the same molecule?
**A.** Its value is 50.

**Q.** And the “Goosegrass plant response rating” value ([2]; 62 g ai/ha, Preemergence)?
**A.** The value was 100.

**Q.** What about the “Goosegrass plant response rating” value ([2]; 125 g ai/ha, preemergence) of the same molecule?
**A.** Its value is 100.

**Q.** And the “Plant response rating, Goosegrass” value ([2]; Preemergence, 16 g ai/ha)?
**A.** Its value is 65.

**Q.** And the “Plant response rating, Goosegrass” value ([2]; Preemergence, 31 g ai/ha)?
**A.** The value was 98.

**Q.** And the “Cupgrass, Woolly plant response rating” value ([3]; 62 g ai/ha, scale 0 to 100)?
**A.** Its value is 100.

**Q.** And the “Plant response rating, Cupgrass, Woolly” value ([3]; 31 g ai/ha, scale 0 to 100 (0 no effect, 100 complete control))?
**A.** The value was 70.

**Q.** What about the “Plant response rating (0 to 100), Cupgrass, Woolly” value ([3]; 250 g ai/ha) of the same molecule?
**A.** The value was 100.

**Q.** What about the “Kochia plant response rating” value ([4]; 62 g ai/ha, Preemergence) of the same molecule?
**A.** Its value is 100.

**Q.** What about the “Kochia plant response rating” value ([4]; 125 g ai/ha, preemergence) of the same molecule?
**A.** The value was 100.

**Q.** And the “Plant response rating, Kochia” value ([4]; Preemergence, 16 g ai/ha)?
**A.** The value was 0.

**Q.** And the “Plant response rating, Kochia” value ([4]; Preemergence, 31 g ai/ha)?
**A.** Its value is 50.

**Q.** And the “Ryegrass, Italian plant response rating” value ([5]; 62 g ai/ha, Preemergence)?
**A.** The value was 100.

**Q.** What about the “Ryegrass, Italian plant response rating” value ([5]; 125 g ai/ha, preemergence) of the same molecule?
**A.** Its value is 100.

**Q.** What about the “Plant response rating, Ryegrass, Italian” value ([5]; Preemergence, 16 g ai/ha) of the same molecule?
**A.** The value was 65.

**Q.** What about the “Plant response rating, Ryegrass, Italian” value ([5]; Preemergence, 31 g ai/ha) of the same molecule?
**A.** Its value is 98.

**Q.** What about the “Blackgrass plant response rating” value [6, 17] of the same molecule?
**A.** Its value is 100.

**Q.** What about the “Plant response rating, Blackgrass” value [6, 18] of the same molecule?
**A.** Its value is 100.

**Q.** And the “Plant response rating (0 to 100), Blackgrass” value ([6]; Preemergence, 250 g ai/ha)?
**A.** The value was 100.

**Q.** What about the “Blackgrass plant response rating” value [6, 19] of the same molecule?
**A.** The value was 100.

**Q.** And the “Surinam Grass plant response rating” value ([7]; 62 g ai/ha, Preemergence)?
**A.** Its value is 100.

**Q.** And the “Surinam Grass plant response rating” value ([7]; 125 g ai/ha, preemergence)?
**A.** The value was 100.

**Q.** And the “Plant response rating, Surinam Grass” value ([7]; Preemergence, 31 g ai/ha)?
**A.** The value was 90.

**Q.** What about the “Ragweed plant response rating” value ([8]; 62 g ai/ha, Preemergence) of the same molecule?
**A.** The value was 80.

**Q.** And the “Ragweed plant response rating” value ([8]; 125 g ai/ha, preemergence)?
**A.** Its value is 90.

**Q.** What about the “Plant response rating, Ragweed” value ([8]; Preemergence, 16 g ai/ha) of the same molecule?
**A.** Its value is 20.

**Q.** What about the “Plant response rating, Ragweed” value ([8]; Preemergence, 31 g ai/ha) of the same molecule?
**A.** The value was 70.

**Q.** And the “Purple Nutsedge plant response rating” value ([9]; 62 g ai/ha, Preemergence)?
**A.** The value was 80.

**Q.** What about the “Purple Nutsedge plant response rating” value ([9]; 125 g ai/ha, preemergence) of the same molecule?
**A.** The value was 90.

**Q.** And the “Plant response rating, Purple Nutsedge” value ([9]; Preemergence, 16 g ai/ha)?
**A.** The value was 0.

**Q.** And the “Plant response rating, Purple Nutsedge” value ([9]; Preemergence, 31 g ai/ha)?
**A.** Its value is 25.

**Q.** And the “Sandbur plant response rating” value ([10]; 62 g ai/ha, Preemergence)?
**A.** Its value is 100.

**Q.** What about the “Sandbur plant response rating” value ([10]; 125 g ai/ha, preemergence) of the same molecule?
**A.** Its value is 100.

**Q.** What about the “Plant response rating, Sandbur” value ([10]; Preemergence, 31 g ai/ha) of the same molecule?
**A.** The value was 90.

**Q.** What about the “Barnyardgrass plant response rating” value ([11]; 62 g ai/ha, Preemergence) of the same molecule?
**A.** Its value is 100.

**Q.** What about the “Barnyardgrass plant response rating” value ([11]; 125 g ai/ha, preemergence) of the same molecule?
**A.** The value was 100.

**Q.** And the “Plant response rating, Barnyardgrass” value ([11]; Preemergence, 16 g ai/ha)?
**A.** The value was 75.

**Q.** What about the “Plant response rating, Barnyardgrass” value ([11]; Preemergence, 31 g ai/ha) of the same molecule?
**A.** Its value is 100.

**Q.** What about the “Corn plant response rating” value [12, 17] of the same molecule?
**A.** The value was 85.

**Q.** And the “Plant response rating, Corn” value [12, 18]?
**A.** The value was 30.

**Q.** What about the “Plant response rating (0 to 100), Corn” value ([12]; Preemergence, 250 g ai/ha) of the same molecule?
**A.** Its value is 100.

**Q.** And the “Corn plant response rating” value [12, 19]?
**A.** The value was 100.

**Q.** What about the “Crabgrass, Large plant response rating” value ([13]; 62 g ai/ha, Preemergence) of the same molecule?
**A.** Its value is 100.

**Q.** What about the “Crabgrass, Large plant response rating” value ([13]; 125 g ai/ha, preemergence) of the same molecule?
**A.** Its value is 100.

**Q.** What about the “Plant response rating, Crabgrass, Large” value ([13]; Preemergence, 16 g ai/ha) of the same molecule?
**A.** The value was 30.

**Q.** And the “Plant response rating, Crabgrass, Large” value ([13]; Preemergence, 31 g ai/ha)?
**A.** Its value is 80.

**Q.** And the “Bermudagrass plant response rating” value ([14]; 62 g ai/ha, Preemergence)?
**A.** The value was 80.

**Q.** What about the “Bermudagrass plant response rating” value ([14]; 125 g ai/ha, preemergence) of the same molecule?
**A.** Its value is 100.

**Q.** And the “Plant response rating, Bermudagrass” value ([14]; Preemergence, 16 g ai/ha)?
**A.** Its value is 0.

**Q.** What about the “Plant response rating, Bermudagrass” value ([14]; Preemergence, 31 g ai/ha) of the same molecule?
**A.** Its value is 30.

**Q.** What about the “Black Mustard plant response rating” value ([15]; 62 g ai/ha, Preemergence) of the same molecule?
**A.** The value was 100.

**Q.** And the “Black Mustard plant response rating” value ([15]; 125 g ai/ha, preemergence)?
**A.** The value was 100.

**Q.** What about the “Plant response rating, Black Mustard” value ([15]; Preemergence, 16 g ai/ha) of the same molecule?
**A.** Its value is 80.

**Q.** What about the “Plant response rating, Black Mustard” value ([15]; Preemergence, 31 g ai/ha) of the same molecule?
**A.** Its value is 100.

**Q.** And the “Signalgrass plant response rating” value ([16]; 62 g ai/ha, Preemergence)?
**A.** Its value is 90.

**Q.** What about the “Signalgrass plant response rating” value ([16]; 125 g ai/ha, preemergence) of the same molecule?
**A.** The value was 100.

**Q.** What about the “Plant response rating, Signalgrass” value ([16]; Preemergence, 31 g ai/ha) of the same molecule?
**A.** Its value is 75.
